US7388006B2, “Non-steroidal progesting” (Bayer Schering Pharma AG, priority 2002, dated 2008)

Tests used:
rat mammary epithelium = assay: Bioassay on proliferating/differentiating effects in the rat mammary epithelium (whole mount staining, terminal and alveolar endbuds); assay type: in vivo
Text: The object of this test is to evaluate the effect of progestins on the development of the mammary gland, in particular on the formation of terminal end-buds in the mammary gland in estrogen primed rats. Progestins together with other hormones (prolactin, estrogens, glucocorticoids, growth hormones etc.) induce proliferation and differentiation of the mammary glandular epithelium. In particular, they are involved in the morphogenesis of alveolar and terminal end buds, the sites of milk protein production and secretion into the ductal lumen.
In order to determine the effects of test progestins according to the present invention, in particular compound ((+)-1), in mammary gland differentiation and proliferation, premature female rats (Wistar Han, SPF) are ovariectomized at the age of 21 days, 4 to 6 days before treatment start. The animals are treated for 6 days with standard estrogen (estrone (E1), 70 μg/kg) and the test progestin ((+)-1) (application volume: 0.1 ml/50 g body weight; vehicle: benzylbenzoate/castor oil (1+4 v/v); subcutaneous). Control groups are e.g.: vehicle, estrone without progestin, estradiol together with a known progestin, e.g. R5020 (promegestone). After the 6-day treatment the animals are killed with carbon dioxide.
For the whole mount staining, animals are shaved in the left abdominal inguinal mammary region, which is cut from the body together with the skin. For the histological/immunohistochemical analyses the right abdominal inguinal mammary gland is cut from the body together with the connective-tissue adhered thereto and fixed in 3.7% formalin in PBS (phosphate buffer saline; without Ca^2+/Mg^2+).
The preparations are fixed over night in alcohol-formalin according to the method of Tellyesniczky (see below). Then the mammary gland tissue and subcutis adhered thereto are stripped from the cutis and the preparations are again fixed over night. The further steps are as follows: ethanol 70%: 1.5 hours; acetone: 3×1.5 hours; acetone: over night; isopropanol: 1.5 hours; ethanol 96%: 2 hours; hematoxylin-iron: 3 hours; VE water: first rinse the preparations and then 2×0.5 hours; ethanol 70%: over night; ethanol 80%: 1.5 hours; ethanol 96%: 1.5 hours; isopropanol: 1.5 hours. The preparations are then moved to petri dishes and left in toluene for approximately 1 hour, i.e. until they have stopped to swim up. Then the preparations are treated with cedarwood oil (Merck, no. 1.06965). The incubation times above are minimum times and can be extended. In particular, incubation in ethanol 70% after fixation can be extended to at least 2.5 weeks.
Preparation of the solutions necessary for the whole mount staining: • a) Alcohol-formalin according to Tellyesniczky: formaldehyde 37%: 81.8 ml, ethanol 70%: 1636 ml, glacial acetic acid (to be added shortly before use): 81.8 ml (total: 1800 ml). • b) Hematoxylin mother solution: Hematoxylin (Merck, no. 1.15938): 10 g, ethanol 96%: 100 ml. The solution must stand for 48 hours at 37° C. before use. […]
By means of a 40-fold magnification, the terminal end buds near the nipple in direction of the tail are counted. […] For well-differentiated preparations this area may be reduced, with at least 250 buds to be counted. After counting, the number of end buds per 1 mm^2 is calculated.
The number of terminal and alveolar endbuds is counted per mm^2 +/− standard deviation (SD). […]

[1] = molecular target: T1, mineralocorticoid receptor (MR) (Homo sapiens, UniProt P08235); assay: Binding to the mineralocorticoid receptor in vitro
T1 sequence (P08235 1-984): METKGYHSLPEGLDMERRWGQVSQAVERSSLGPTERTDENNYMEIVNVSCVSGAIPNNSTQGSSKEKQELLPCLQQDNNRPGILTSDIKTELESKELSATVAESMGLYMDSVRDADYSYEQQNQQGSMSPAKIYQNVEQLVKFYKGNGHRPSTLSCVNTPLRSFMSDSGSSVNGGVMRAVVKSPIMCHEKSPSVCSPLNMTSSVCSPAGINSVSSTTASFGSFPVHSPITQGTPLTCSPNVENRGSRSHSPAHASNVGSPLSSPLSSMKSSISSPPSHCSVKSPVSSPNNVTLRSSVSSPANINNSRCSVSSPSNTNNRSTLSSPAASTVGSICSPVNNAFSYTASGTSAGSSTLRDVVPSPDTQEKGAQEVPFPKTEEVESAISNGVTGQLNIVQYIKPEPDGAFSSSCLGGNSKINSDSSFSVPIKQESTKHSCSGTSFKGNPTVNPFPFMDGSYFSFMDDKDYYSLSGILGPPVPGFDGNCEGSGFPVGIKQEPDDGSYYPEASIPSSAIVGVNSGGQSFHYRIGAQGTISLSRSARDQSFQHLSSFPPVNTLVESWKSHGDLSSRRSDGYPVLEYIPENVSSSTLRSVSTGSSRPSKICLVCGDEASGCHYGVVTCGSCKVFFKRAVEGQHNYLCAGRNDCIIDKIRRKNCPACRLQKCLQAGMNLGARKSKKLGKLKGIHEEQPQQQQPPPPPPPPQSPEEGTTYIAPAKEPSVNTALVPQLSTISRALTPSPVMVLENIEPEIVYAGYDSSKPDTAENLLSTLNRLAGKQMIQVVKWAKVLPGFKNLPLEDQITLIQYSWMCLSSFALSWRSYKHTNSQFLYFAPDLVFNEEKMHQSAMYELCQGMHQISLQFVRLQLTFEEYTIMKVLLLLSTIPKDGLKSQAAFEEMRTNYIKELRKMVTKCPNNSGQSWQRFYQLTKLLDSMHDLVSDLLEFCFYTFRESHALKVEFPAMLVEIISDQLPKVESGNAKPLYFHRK

With `O=C1OCc2cc(NC(=O)C(O)(CC3(c4cc(C(F)(F)F)ccc4F)CC3)C(F)(F)F)ccc21` (single isomer, unassigned; (+)) [((+)-1), (+)-5-{2-hydroxy-3-[1-(2-fluoro-5-trifluoromethylphenyl)-cyclopropyl]-2-trifluoromethyl-propionylamino}-phthalide] the “Threshold value for the induction of terminal and alveolar endbuds” value (rat mammary epithelium; FIG. 3) was 100 µg/kg/day, the “Terminal and alveolar end bud formation, result in words” value (rat mammary epithelium; at doses where pregnancy is fully maintained) was “no effects on terminal and alveolar end bud formation can be observed” and the “Mammary gland, whole mount staining (rat) [threshold value]” value (rat mammary epithelium; induction of terminal and alveolar endbuds) was 0.1 mg/kg/day. The “Mammary gland, whole mount staining, factor compared to R5020” value (rat mammary epithelium; median of three tests) was “ca. 1”, the “Dissociation in favor of uterotropic activity (uterus versus mammary gland)” value (rat mammary epithelium; pregnancy maintenance versus mammary gland) was “at least six fold” and the “Affinity for the mineralocorticoid receptor (MR)” value [1] was “negligible affinity”.
